Target: T1, human vasopressin V1b receptor (Homo sapiens, UniProt P47901)
T1 construct: expressed in transfected cells; host or cells: CHO-K1 (cell line hV1b-3H2_CHO), membrane preparation
T1 sequence (P47901 1-424): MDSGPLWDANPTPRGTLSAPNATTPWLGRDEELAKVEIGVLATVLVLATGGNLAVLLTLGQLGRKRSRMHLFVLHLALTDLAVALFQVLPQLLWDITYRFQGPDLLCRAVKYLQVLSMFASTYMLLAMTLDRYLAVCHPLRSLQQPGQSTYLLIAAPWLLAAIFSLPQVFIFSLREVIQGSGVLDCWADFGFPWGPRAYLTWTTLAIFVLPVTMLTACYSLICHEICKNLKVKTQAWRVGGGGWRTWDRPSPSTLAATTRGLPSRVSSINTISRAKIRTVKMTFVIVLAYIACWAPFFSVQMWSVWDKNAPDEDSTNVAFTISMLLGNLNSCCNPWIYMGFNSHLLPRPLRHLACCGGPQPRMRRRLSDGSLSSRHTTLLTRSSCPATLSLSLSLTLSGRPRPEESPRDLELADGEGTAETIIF
Experiment: Vasopressin V1b receptor binding assay
Conditions: membranes from CHO-K1 cells with stably expressed human V1b receptors; displacement of 1.5 nM 3H-AVP; read-out: V1b receptor affinity (affinity constant Ki)
Method in brief: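 Ki values come from nonlinear regression of triplicate scintillation counts after filtration. Test compound (2% DMSO in the mixture) and radioligand were incubated 60 min at room temperature with human V1b membranes in pH 7.4 Tris buffer with 10 mM MgCl2 and 0.1% BSA. Nonspecific binding was set with 1 uM AVP.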

Compound | Ki [nM]
COc1ccc(S(=O)(=O)n2c(=O)n(C(C(=O)N3CC[C@@H](N4CCN(Cc5ccccc5)CC4)C3)c3ccccc3)c3cc(C#N)ccc32)cc1 (stereo partly drawn) [Example 144, 3-{2-[(R)-3-(4-Benzylpiperazin-1-yl)-pyrrolidin-1-yl]-2-oxo-1-phenylethyl}-1-(4-methoxybenzenesulfonyl)-2-oxo-2,3-dihydro-1H-benzimidazole-5-carbonitrile] | 500 to 10000
COc1ccc(S(=O)(=O)n2c(=O)n(C(C(=O)N3CC[C@@H](N4CCNCC4)C3)c3ccccc3)c3cc(Cl)ccc32)cc1 (stereo partly drawn) [Example 145, 5-Chloro-1-(4-methoxybenzenesulfonyl)-3-[2-oxo-1-phenyl-2-((R)-3-piperazin-1-yl-pyrrolidin-1-yl)-ethyl]-1,3-dihydrobenzimidazol-2-one] | < 100
COc1ccc(S(=O)(=O)n2c(=O)n(C(C(=O)N3CCC(N4CCNCC4)C3)c3ccccc3)c3cc(Cl)ccc32)cc1 (stereo not drawn) [Example 146, 5-Chloro-1-(4-methoxybenzenesulfonyl)-3-[2-oxo-1-phenyl-2-(3-piperazin-1-ylpyrrolidin-1-yl)-ethyl]-1,3-dihydrobenzimidazol-2-one] | < 100
COc1ccc(S(=O)(=O)n2c(=O)n(C(C(=O)N3CCCC(N4CCNCC4)C3)c3ccccc3)c3cc(Cl)ccc32)cc1 (stereo not drawn) [Example 147, 5-Chloro-1-(4-methoxybenzenesulfonyl)-3-[2-oxo-1-phenyl-2-(3-piperazin-1-ylpiperidin-1-yl)ethyl]-1,3-dihydrobenzimidazol-2-one] | < 100
COc1ccc(S(=O)(=O)n2c(=O)n(C(C(=O)N3CC(N4CCNCC4)C3)c3ccccc3)c3cc(Cl)ccc32)cc1 (stereo not drawn) [Example 148, 5-Chloro-1-(4-methoxybenzenesulfonyl)-3-[2-oxo-1-phenyl-2-(3-piperazin-1-ylazetidin-1-yl)ethyl]-1,3-dihydrobenzimidazol-2-one] | 100 to 500
COc1ccc(S(=O)(=O)n2c(=O)n(C(C(=O)N3CC[C@H](N4CCNCC4)C3)c3ccccc3)c3cc(Cl)ccc32)cc1 (stereo partly drawn) [Example 149, 5-Chloro-1-(4-methoxybenzenesulfonyl)-3-[2-oxo-1-phenyl-2-((S)-3-piperazin-1-ylpyrrolidin-1-yl)ethyl]-1,3-dihydrobenzimidazol-2-one] | < 100
COc1ccc(S(=O)(=O)n2c(=O)n(C(C(=O)N3CC[C@H](N4CCNCC4)C3)c3ccccc3)c3cc(C#N)ccc32)cc1 (stereo partly drawn) [Example 150, 1-(4-Methoxybenzenesulfonyl)-2-oxo-3-[2-oxo-1-phenyl-2-((S)-3-piperazin-1-ylpyrrolidin-1-yl)ethyl]-2,3-dihydro-1H-benzimidazole-5-carbonitrile] | < 100
COc1ccc(S(=O)(=O)n2c(=O)n(C(C(=O)N3CC[C@@H](N4CCNCC4)C3)c3ccccc3)c3cc(C#N)ccc32)cc1 (stereo partly drawn) [Example 151, 1-(4-Methoxybenzenesulfonyl)-2-oxo-3-[2-oxo-1-phenyl-2-((R)-3-piperazin-1-ylpyrrolidin-1-yl)ethyl]-2,3-dihydro-1H-benzimidazole-5-carbonitrile] | < 100
CCN1CCN([C@H]2CCN(C(=O)C(c3ccccc3)n3c(=O)n(S(=O)(=O)c4ccc(OC)cc4)c4ccc(Cl)cc43)C2)CC1 (stereo partly drawn) [Example 152, 5-Chloro-3-{2-[(S)-3-(4-ethylpiperazin-1-yl)pyrrolidin-1-yl]-2-oxo-1-phenylethyl}-1-(4-methoxybenzenesulfonyl)-1,3-dihydrobenzimidazol-2-one] | < 100
COc1ccc(S(=O)(=O)n2c(=O)n(C(C(=O)N3CC[C@H](N4CCN(C)CC4)C3)c3ccccc3)c3cc(Cl)ccc32)cc1 (stereo partly drawn) [Example 153, 5-Chloro-1-(4-methoxybenzenesulfonyl)-3-{2-[(S)-3-(4-methylpiperazin-1-yl)pyrrolidin-1-yl]-2-oxo-1-phenylethyl}-1,3-dihydrobenzimidazol-2-one] | < 100
CCCN1CCN(C2CN(C(=O)C(c3ccccc3)n3c(=O)n(S(=O)(=O)c4ccc(OC)cc4)c4ccc(Cl)cc43)C2)CC1 (stereo not drawn) [Example 154, 5-Chloro-1-(4-methoxybenzenesulfonyl)-3-{2-oxo-1-phenyl-2-[3-(4-propylpiperazin-1-yl)azetidin-1-yl]ethyl}-1,3-dihydrobenzimidazol-2-one] | 100 to 500
CCCN1CCN(C2CCCN(C(=O)C(c3ccccc3)n3c(=O)n(S(=O)(=O)c4ccc(OC)cc4)c4ccc(Cl)cc43)C2)CC1 (stereo not drawn) [Example 155, 5-Chloro-1-(4-methoxybenzenesulfonyl)-3-{2-oxo-1-phenyl-2-[3-(4-propylpiperazin-1-yl)piperidin-1-yl]ethyl}-1,3-dihydrobenzimidazol-2-one] | < 100
COc1ccc(S(=O)(=O)n2c(=O)n(C(C(=O)N3CCCC(N4CCN(C)CC4)C3)c3ccccc3)c3cc(Cl)ccc32)cc1 (stereo not drawn) [Example 156, 5-Chloro-1-(4-methoxybenzenesulfonyl)-3-{2-[3-(4-methylpiperazin-1-yl)piperidin-1-yl]-2-oxo-1-phenylethyl}-1,3-dihydrobenzimidazol-2-one] | < 100
CCCN1CCN([C@@H]2CCN(C(=O)C(c3ccccc3)n3c(=O)n(S(=O)(=O)c4ccc(OC)cc4)c4ccc(Cl)cc43)C2)CC1 (stereo partly drawn) [Example 157, 5-Chloro-1-(4-methoxybenzenesulfonyl)-3-{2-oxo-1-phenyl-2-[(R)-3-(4-propylpiperazin-1-yl)pyrrolidin-1-yl]ethyl}-1,3-dihydrobenzimidazol-2-one] | < 100
CCCN1CCN([C@H]2CCN(C(=O)C(c3ccccc3)n3c(=O)n(S(=O)(=O)c4ccc(OC)cc4)c4ccc(Cl)cc43)C2)CC1 (stereo partly drawn) [Example 158, 5-Chloro-1-(4-methoxybenzenesulfonyl)-3-{2-oxo-1-phenyl-2-[(S)-3-(4-propylpiperazin-1-yl)pyrrolidin-1-yl]ethyl}-1,3-dihydrobenzimidazol-2-one] | < 100
COc1ccc(S(=O)(=O)n2c(=O)n(C(C(=O)N3CC[C@@H](N4CCN(C)CC4)C3)c3ccccc3)c3cc(Cl)ccc32)cc1 (stereo partly drawn) [Example 159, 5-Chloro-1-(4-methoxybenzenesulfonyl)-3-{2-[(R)-3-(4-methylpiperazin-1-yl)pyrrolidin-1-yl]-2-oxo-1-phenylethyl}-1,3-dihydrobenzimidazol-2-one] | < 100
COc1ccc(S(=O)(=O)n2c(=O)n(C(C(=O)N3CC[C@H](N4CCN(C)CC4)C3)c3ccccc3)c3cc(C#N)ccc32)cc1 (stereo partly drawn) [Example 160, 1-(4-Methoxybenzenesulfonyl)-3-{2-[(S)-3-(4-methylpiperazin-1-yl)-pyrrolidin-1-yl]-2-oxo-1-phenylethyl}-2-oxo-2,3-dihydro-1H-benzimidazole-5-carbonitrile] | < 100
CCCN1CCN([C@H]2CCN(C(=O)C(c3ccccc3)n3c(=O)n(S(=O)(=O)c4ccc(OC)cc4)c4ccc(C#N)cc43)C2)CC1 (stereo partly drawn) [Example 161, 1-(4-Methoxybenzenesulfonyl)-2-oxo-3-{2-oxo-1-phenyl-2-[(S)-3-(4-propylpiperazin-1-yl)pyrrolidin-1-yl]ethyl}-2,3-dihydro-1H-benzimidazole-5-carbonitrile] | < 100
COc1ccc(S(=O)(=O)n2c(=O)n(C(C(=O)N3CC[C@@H](N4CCN(C)CC4)C3)c3ccccc3)c3cc(C#N)ccc32)cc1 (stereo partly drawn) [Example 162, 1-(4-Methoxybenzenesulfonyl)-3-{2-[(R)-3-(4-methylpiperazin-1-yl)-pyrrolidin-1-yl]-2-oxo-1-phenylethyl}-2-oxo-2,3-dihydro-1H-benzimidazole-5-carbonitrile] | 100 to 500
CCCN1CCN([C@@H]2CCN(C(=O)C(c3ccccc3)n3c(=O)n(S(=O)(=O)c4ccc(OC)cc4)c4ccc(C#N)cc43)C2)CC1 (stereo partly drawn) [Example 163, 1-(4-Methoxybenzenesulfonyl)-2-oxo-3-{2-oxo-1-phenyl-2-[(R)-3-(4-propylpiperazin-1-yl)pyrrolidin-1-yl]ethyl}-2,3-dihydro-1H-benzimidazole-5-carbonitrile] | 100 to 500
COc1ccc(S(=O)(=O)n2c(=O)n(C(C(=O)N3CCN(C4CCCNC4)CC3)c3ccccc3)c3cc(Cl)ccc32)cc1 (stereo not drawn) [Example 165, 5-Chloro-1-(4-methoxybenzenesulfonyl)-3-[2-oxo-1-phenyl-2-(4-piperidin-3-ylpiperazin-1-yl)ethyl]-1,3-dihydrobenzimidazol-2-one] | 500 to 10000
COc1ccc(S(=O)(=O)n2c(=O)n(C(C(=O)N3CCC(N)C3)c3ccccc3)c3cc(Cl)ccc32)cc1 (stereo not drawn) [Example 166, 3-[2-(3-Aminopyrrolidin-1-yl)-2-oxo-1-phenylethyl]-5-chloro-1-(4-methoxybenzenesulfonyl)-1,3-dihydrobenzimidazol-2-one] | 100 to 500
COc1ccc(S(=O)(=O)n2c(=O)n(C(C(=O)N3CCCC(N)C3)c3ccccc3)c3cc(Cl)ccc32)cc1 (stereo not drawn) [Example 167, 3-[2-(3-Aminopiperidin-1-yl)-2-oxo-1-phenylethyl]-5-chloro-1-(4-methoxybenzenesulfonyl)-1,3-dihydrobenzimidazol-2-one] | < 100
COc1ccc(S(=O)(=O)n2c(=O)n(C(C(=O)N3CC[C@H](N)C3)c3ccccc3)c3cc(Cl)ccc32)cc1 (stereo partly drawn) [Example 168, 3-[2-((S)-3-Aminopyrrolidin-1-yl)-2-oxo-1-phenylethyl]-5-chloro-1-(4-methoxybenzenesulfonyl)-1,3-dihydrobenzimidazol-2-one] | 100 to 500

From patent publication US8791148B2, “Substituted benzimidazolone derivatives, medicaments comprising them and their use” (AbbVie Deutschland GmbH & Co. KG, priority 2006, dated 2014)
